Where a name gives a salt, the structure may show the parent alone.
Each molecule was assayed against T1, α7 nAChR (Rattus norvegicus, UniProt Q05941) (assay: Affinity for α7 nAChR by inhibition of [3H]-methyllycaconitine binding to rat brain membranes). Details: not given.
T1 construct: Rat brain tissue (hippocampus or whole brain) is homogenized in homogenization buffer; from tissue; host or cells: rat brain (hippocampus or whole brain), P2 membrane fraction
T1 sequence (Q05941 23-502): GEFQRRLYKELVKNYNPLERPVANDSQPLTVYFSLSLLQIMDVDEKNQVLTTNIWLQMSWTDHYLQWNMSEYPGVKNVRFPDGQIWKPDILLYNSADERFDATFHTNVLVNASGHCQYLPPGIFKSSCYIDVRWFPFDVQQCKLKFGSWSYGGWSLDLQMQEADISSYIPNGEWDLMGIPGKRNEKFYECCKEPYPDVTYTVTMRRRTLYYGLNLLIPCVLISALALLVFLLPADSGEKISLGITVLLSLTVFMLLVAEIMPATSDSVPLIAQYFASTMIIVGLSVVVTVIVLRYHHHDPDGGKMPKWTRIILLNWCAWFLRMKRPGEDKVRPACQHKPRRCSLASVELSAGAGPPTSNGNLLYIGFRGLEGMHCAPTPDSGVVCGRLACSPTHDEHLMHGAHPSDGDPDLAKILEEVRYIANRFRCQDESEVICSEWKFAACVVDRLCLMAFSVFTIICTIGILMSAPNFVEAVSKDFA
Description: 1. Determination of the Affinity of Test Substances for α7 nAChR by Inhibition of [^3H]-methyllycaconitine Binding to Rat Brain Membranes
The [^3H]-methyllycaconitine binding assay is a modification of the method described by Davies et al. (Neuropharmacol. 1999, 38, 679–690).
Rat brain tissue (hippocampus or whole brain) is homogenized in homogenization buffer (10% w/v, 0.32 M sucrose, 1 mM EDTA, 0.1 mM phenylmethylsulfonyl fluoride (PMSF), 0.01% (w/v) NaN3, pH 7.4, 4° C.) at 600 rpm in a glass homogenizer. The homogenate is centrifuged (1000×g, 4° C., 10 min) and the supernatant is removed. The pellet is resuspended (20% w/v) and the suspension is centrifuged (1000×g, 4° C., 10 min). The two supernatants are combined and centrifuged (15 000×g, 4° C., 30 min). The pellet obtained in this way is referred to as the P2 fraction.
The P2 pellet is washed twice with binding buffer (50 mM Tris-HCl, 1 mM MgCl2, 120 mM NaCl, 5 mM KCl, 2 mM CaCl2, pH 7.4), and centrifuged (15 000×g, 4° C., 30 min).
The P2 membranes are resuspended in binding buffer and incubated in a volume of 250 μl (amount of membrane protein 0.1–0.5 mg) in the presence of 1–5 nM [^3H]-methyllycaconitine, 0.1% (w/v) BSA (bovine serum albumin) and various concentrations of the test substance at 21° C. for 2.5 h. The nonspecific binding is determined by incubation in the presence of 1 μM α-bungarotoxin or 100 μM nicotine or 10 μM MLA (methyllycaconitine).
The incubation is stopped by adding 4 ml of PBS (20 mM Na2HPO4, 5 mM KH2PO4, 150 mM NaCl, pH 7.4, 4° C.) and filtering through type A/E glass fibre filters (Gelman Sciences) which have previously been placed in 0.3% (v/v) polyethyleneimine (PEI) for 3 h. The filters are washed twice with 4 ml of PBS (4° C.), and the bound radioactivity is determined by scintillation measurement. All the assays are carried out in triplicate. The dissociation constant Ki of the test substance is determined from the IC50 of the compounds (concentration of the test substance at which 50% of the ligand bound to the receptor is displaced), the dissociation constant KD and the concentration L of [^3H]-methyllycaconitine using the equation Ki=IC50/(1+L/KD).
`O=C(CC1CN2CCC1CC2)Nc1cccc(-c2ccc(CO)cc2)c1` (stereo not shown) [Example 9, 2-(1-Azabicyclo[2.2.2]oct-3-yl)-N-[4′-(hydroxymethyl)-1,1′-biphenyl-3-yl]acetamide Hydrochloride] was tested, and the Ki was 519 nM. `O=C(Nc1ccc(-c2ccc(CO)cc2)cc1)[C@H]1CN2CCC1CC2` [Example 14, (3R)-N-[4′-(Hydroxymethyl)-1,1′-biphenyl-4-yl]-1-azabicyclo[2.2.2]octane-3-carboxamide Hydrochloride] was tested, and the Ki was 20 nM. `O=C(Nc1ccc(-c2ccc(CO)cc2)cc1)[C@@H]1CN2CCC1CC2` [Example 15, (3S)-N-[4′-(Hydroxymethyl)-1,1′-biphenyl-4-yl]-1-azabicyclo[2.2.2]octane-3-carboxamide Hydrochloride] was tested, and the Ki was 39 nM. In the case of `CC(C)(O)c1ccc(-c2ccc(NC(=O)[C@H]3CN4CCC3CC4)cc2)cc1` [Example 20, (3R)-N-[4′-(1-Hydroxy-1-methylethyl)-1,1′-biphenyl-4-yl]-1-azabicyclo[2.2.2]octane-3-carboxamide], the Ki is reported as 10 nM. `NC(=O)c1ccc(-c2ccc(NC(=O)[C@H]3CN4CCC3CC4)cc2)cc1` [Example 21, (3R)-N-[4′-(Aminocarbonyl)-1,1′-biphenyl-4-yl]-1-azabicyclo[2.2.2]octane-3-carboxamide Hydrochloride] gave a Ki of 98 nM. `O=C(Nc1ccc(-c2ccc(CO)c(F)c2)cc1)[C@H]1CN2CCC1CC2` [Example 22, (3R)-N-[4′-(Hydroxymethyl)-3′-fluoro-1,1′-biphenyl-4-yl]-1-azabicyclo[2.2.2]octane-3-carboxamide] showed a Ki of 58 nM. `CNC(=O)OCc1ccc(-c2ccc(NC(=O)[C@H]3CN4CCC3CC4)cc2)cc1` [Example 23, (4′-{[(3R)-1-Azabicyclo[2.2.2]oct-3-ylcarbonyl]amino}-1,1′-biphenyl-4-yl)methyl Methylcarbamate] gave a Ki of 39 nM.

Same assay, conditions: [3H]-methyllycaconitine displacement, rat brain P2 membranes, 21° C., 2.5 h; Ki=IC50/(1+L/KD); read-out: Ki
`CC(C)NC(=O)OCc1ccc(-c2ccc(NC(=O)[C@H]3CN4CCC3CC4)cc2)cc1` [Example 24, (4′-{[(3R)-1-Azabicyclo[2.2.2]oct-3-ylcarbonyl]amino}-1,1′-biphenyl-4-yl)methyl Isopropylcarbamate] was tested, and the Ki was 230 nM. For `CC(=O)c1ccc(-c2ccc(NC(=O)CC3CN4CCC3CC4)cc2)cc1` (stereo not shown) [Example 26], the Ki was 310 nM. Work on `CC(=O)c1ccccc1-c1ccc(NC(=O)CC2CN3CCC2CC3)cc1` (stereo not shown) [Example 31] yielded a Ki of 420 nM.

Reference: patent publication US7138410B2, “Aza-bicyclic N-biarylamides with affinity for the α7 nicotinic acetylcholine receptor” (Bayer HealthCare AG, priority 2002, dated 2006)
